Legend:
[1] = test system: hepatocytes made resistant by DEN feeding; experiment: Viability of carcinogen altered drug-resistant hepatocytes; type: cell-based, rat; conditions: 24 hours; 10^-6 M
Text: (§1) Male Fischer 344 rats weighing 150 to 200 g were used to obtain viable hepatocytes. The animals were fed a basal, high-casein diet. A 12-hr light cycle was maintained in the animal colony and water was given ad libitum. Carcinogen altered hepatocytes were produced by feeding the animals a diet containing 0.02% 2-AAF (w/w) or 80 ppm DEN in the drinking water for 8 to 12 weeks. Cells from such animals were used in the cytotoxicity and cell viability studies reported herein.
Liver cell suspensions were prepared by the collagenase perfusion technique. Cell suspensions were passed through sterile gauze filters to remove large tissue pieces. Viability was assessed by trypan blue exclusion and perfusates containing less than 65% viable cells were not used. Cells were plated at density of 1×10^6 viable cells per plastic culture flask of 25 cm^2 surface area in 4 ml of L-15 medium containing 3.5 mg/ml 4-(2-hydroxyethyl)-1-piperazineethanesulfonic acid and 2 mg/ml bovine serum albumin. The medium was supplemented with 10% fetal bovine serum, 100 μg/ml penicillin, and streptomycin. […] The medium was removed and the number of viable cells was counted. […]

[2] = test system: rat liver cancer cell line RLC; experiment: Growth inhibition study; type: cell-based
Description: (§2) Cell lines used were the human leukemia clones CCRF-CEM/Vbl 500 and CCRF-CEM/Vbl 100 and rat liver cancer cells (RLC). All cultures were maintained in RPMI-1640 medium supplemented with fetal calf serum (2%), newborn calf serum (8%), penicillin-streptomycin (0.5 mg/ml), and fungizone (0.015 mg/ml) (Flow Laboratories Inc.). Suspension cultures were diluted to 4×10^4 cells/assay/1.8 ml medium and attached cell lines were plated at 2.5×10^5 cells/25 cm^2 growth area/3.6 ml medium. Appropriate quantities of free doxorubicin, microsphere coupled doxorubicin, plain polyglutaraldehyde microspheres, or PBS, were added and the assays were incubated for 3-6 doubling times at 37° in a 5% CO2 - 95% air incubator. Cells were then counted on a Model Zb Coulter counter and a ratio of total number of cells after incubation per number of cells originally introduced (Nt /No) was obtained.
The cytostatic activity of the drug polymer complex of EXAMPLE 3 was further investigated using the rat liver cancer cell line RLC. […] Furthermore, the Adr-PGLs retained growth inhibition properties at concentrations as low as 1×10^-9 M.

[3] = test system: hepatocytes made resistant by 2-AAF feeding; experiment: Viability of carcinogen altered drug-resistant hepatocytes; type: cell-based, rat; conditions: for viability at 1 µM: 10^-6 M
Text: as §1
(§3) Liver cell suspensions were prepared by the collagenase perfusion technique. Cell suspensions were passed through sterile gauze filters to remove large tissue pieces. Viability was assessed by trypan blue exclusion and perfusates containing less than 65% viable cells were not used. Cells were plated at density of 1×10^6 viable cells per plastic culture flask of 25 cm^2 surface area in 4 ml of L-15 medium containing 3.5 mg/ml 4-(2-hydroxyethyl)-1-piperazineethanesulfonic acid and 2 mg/ml bovine serum albumin. The medium was supplemented with 10% fetal bovine serum, 100 μg/ml penicillin, and streptomycin. Following a 2 hour attachment period at 37° in a water-saturated 5% CO2 -95% air incubator, the cells were washed twice with medium and placed in 4ml of fresh medium supplemented with 200 μl PBS, free doxorubicin, uncoupled microspheres, or the polymer bound drug. At various times 0.8 ml of trypan blue was added to each flask and incubated for 10 minutes at 37°. The medium was removed and the number of viable cells was counted.
Hepatocytes in perfusates obtained from rats which had been fed the dietary carcinogen 2-AAF are highly resistant to the cytocidal effects of doxorubicin. Experiments were performed to determine the toxicity of the doxorubicin microspheres with regard to these resistant hepatocytes. […] Concentrations of free doxorubicin must be approximately 100-fold higher than the polymer-bound drug to decrease viability to 50%. The most significant differences in cytotoxicity occurred at a concentration of 10^-5 M where the free drug treated hepatocytes remained unaffected and polymer-bound doxorubicin decreased viability to 47%. Subsequent experiments were done with 10^-6 M, free or bound drug, to approach clinically relevant concentrations.
Cell kill kinetics of hepatocytes made resistant by 2-AAF feeding are depicted in TABLE 5. […] At 24 hours, only 67% of the cells remained viable. When hepatocytes made resistant by DEN feeding were used, the same results for free and polymer-bound Adr at 10^-6 M were obtained.

[4] = test system: hepatocytes; experiment: Cell viability by 51Cr release; type: cell-based, rat; set-up: concentration or dose not given beside the values
Description: (§4) Cytotoxic effects of the microspheres of EXAMPLE 3 and free doxorubicin were investigated using short-term monolayer cultures established from the livers of normal rats and rats which had been fed 2-AAF or DEN. Cell viability was evaluated by trypan blue exclusion and confirmed by ^51 Cr release.
as §1, §3
^51 Cr in the form of sodium chromate in sterile isotonic saline was added to the cell suspensions at a concentration of 100 μCi/0.5 ml/5×10^6 cells. The cells were then incubated at 37° for 1 hour with constant shaking. After labeling, the supernatent was removed by centrifugation at 350×g for 5 min and the cells were washed a minimum of 5 times in L-15 medium. Labeled cells were then aliquoted into culture flasks and allowed to attach as previously described. At various times 250 μl aliquots were removed from the flasks and counted in a Packard Gamma Counter. As a control for complete ^51 Cr release, 0% cell viability, cells were detached from the culture flask surface with 10% trypsin and subsequently lysed with 0.5% Nonidet P-40 followed by sonication. Total ^51 Cr release was obtained by subtraction of the residual radioactivity which remained associated with the cell debris.

[5] = test system: hepatocytes; experiment: Cell viability by trypan blue exclusion (Table 2); type: cell-based, rat; set-up: concentration or dose not given beside the values
Description: as §4, §1, §3

[6] = Time-survival response, trypan blue viability; type: cell-based; conditions: rat, hepatocytes, 10^-6 M
Text: as §1, §3
These studies are not continued for longer than 24 hours due to the rapid natural decline in viability observed with untreated cells after prolonged cell culture. The viability of untreated control cultures remained constant throughout each experiment. […] However, cell viability in the presence of free drug was not affected during the first 4 hours of treatment. Alternatively, at 24 hours only 10% of the cells treated with free drug remained viable while 64% of those treated with the bound drug were unaffected. Cell viability was not influenced by addition of uncoupled microspheres to the cultures.

[7] = test system: CCRF-CEM/Vbl 100; experiment: Cytostatic assay, IC50 determination; type: cell-based; conditions: Homo sapiens, after 4 to 6 doubling times, average of three determinations
Description: (§5) In order to test the cytostatic activity of the microspheres, IC50 determinations were made with both the free drug and the drug-polymer complexes. All cell lines were maintained in suspension cultures in RPMI-1640 medium supplemented with the 2% fetal calf serum, 8% newborn calf serum, 0.5 mg/ml penicillin-streptomycin, and 0.015 mg/ml fungizone. The cells were diluted to 40,000 cells/assay/1.8 ml medium and an amount of free doxorubicin, doxorubicin-microspheres or plain microspheres was added in 0.2 ml of phosphate buffered saline. After 4 to 6 doubling times had elapsed, the remaining cells were counted on a Coulter counter. A ratio of the number of cells after incubation per the number of cells originally introduced (Nt/No) was obtained. The drug concentration required for 50% inhibition of cell growth (IC50) was calculated according to the formula [formula]

[8] = test system: CCRF-CEM; experiment: Cytostatic assay, IC50 determination; type: cell-based; conditions: Homo sapiens, after 4 to 6 doubling times, average of three determinations
Description: as §5

[9] = test system: L1210; experiment: Cytostatic assay, IC50 determination; type: cell-based; conditions: Mus musculus, after 4 to 6 doubling times, average of three determinations
Description: as §5

[10] = test system: S-180; experiment: Cytostatic assay, IC50 determination; type: cell-based; conditions: after 4 to 6 doubling times, average of three determinations
Description: as §5

[11] = test system: CCRF-CEM/Vbl 500; experiment: Cytostatic assay, IC50 determination; type: cell-based; conditions: Homo sapiens, after 4 to 6 doubling times, average of three determinations
Description: as §5

[12] = test system: CEM/Vbl 500; experiment: Growth inhibition study; type: cell-based, human; conditions: Table 7, CEM/Vbl 100
Description: as §2
(§6) The cell lines CEM/Vbl 100 and CEM/Vbl 500 were used in cytostatic assays to determine differences in growth inhibition properties between free doxorubicin and polymer-bound drug. Both cell lines are resistant to the effects of vinca alkaloids and are cross-resistant to Adr. […] However, using 10^-7 M of the coupled drug, the growth inhibition for both cell lines is greater than 50%. At 10^-8 M, polymer bound doxorubicin inhibits growth 4-10 times more effectively than free drug. […] Each experiment was performed three times and drug concentrations were tested in duplicate.

[13] = test system: CEM/Vbl 100; experiment: Growth inhibition study; type: cell-based, human; conditions: 3-6 doubling times
Description: as §2, §6

[14] = Homo sapiens, CEM/VBL100, 10^-5 M
[15] = Homo sapiens, CEM/VBL100, 10^-6 M
[16] = Homo sapiens, CEM/VBL100, 10^-7 M
[17] = Homo sapiens, CEM/VBL100, 10^-8 M
[18] = Homo sapiens, CEM/VBL100, 10^-9 M
[19] = Homo sapiens, CEM/VBL100, 10^-10 M

COc1cccc2c1C(=O)c1c(O)c3c(c(O)c1C2=O)C[C@@](O)(C(=O)CO)C[C@@H]3O[C@H]1C[C@H](N)[C@H](O)[C@H](C)O1 [Free doxorubicin, doxorubicin]
viability [1]: no killing effect | inhibition at 1000 µM ([2]; 10^-3 M): 100% | inhibition at 100 µM ([2]; 10^-4 M): 80% | inhibition at 10 µM ([2]; 10^-5 M): 36% | inhibition at 1 µM ([2]; 10^-6 M): 22% | inhibition at 0.1 µM ([2]; 10^-7 M): 0% | inhibition at 0.01 µM ([2]; 10^-8 M): 0% | inhibition at 0.001 µM ([2]; 10^-9 M): 0% | inhibition at 0.0001 µM ([2]; 10^-10 M): 0% | IC50 ([2]; RLC, read-out: 50% inhibitory concentration (IC50)): 18000 nM | % Viability ([3]; 10^-5 M, 24-hr exposure, survival of attached cells compared to controls): unaffected | % Viability ([3]; 24 hours, 10^-6 M (Table 5)): no detectable killing effect | viability at 100 µM ([3]; Rattus norvegicus, Hepatocyte, 10^-4 M, 24-hr exposure, survival of attached cells compared to controls): 68% | viability at 10 µM ([3]; Rattus norvegicus, Hepatocyte, 10^-5 M, 24-hr exposure, survival of attached cells compared to controls): 100% | viability at 1 µM ([3]; Rattus norvegicus, Hepatocyte, 24-hr exposure, survival of attached cells compared to controls (Table 3)): 100% | viability at 0.1 µM ([3]; Rattus norvegicus, Hepatocyte, 10^-7 M, 24-hr exposure, survival of attached cells compared to controls): 100% | viability at 1 µM ([3]; Rattus norvegicus, Hepatocyte, 2 hours): 100% | viability at 1 µM ([3]; Rattus norvegicus, Hepatocyte, 3 hours): 100% | viability at 1 µM ([3]; Rattus norvegicus, Hepatocyte, 4 hours): 100% | viability at 1 µM ([3]; Rattus norvegicus, Hepatocyte, 6 hours): 100% | viability at 1 µM ([3]; Rattus norvegicus, Hepatocyte, 8 hours): 100% | viability at 1 µM ([3]; Rattus norvegicus, Hepatocyte, 16 hours): 100% | viability at 1 µM ([3]; Rattus norvegicus, Hepatocyte, 22 hours): 100% | Percent viability measured by Intracellular CR^51 ([4]; incubation time 3 hr): 100% | Percent viability measured by Intracellular CR^51 ([4]; incubation time 5 hr): 96% | Percent viability measured by Intracellular CR^51 ([4]; incubation time 8 hr): 86% | Percent viability measured by Intracellular CR^51 ([4]; incubation time 12 hr): 75% | Percent viability measured by Intracellular CR^51 ([4]; incubation time 18 hr): 57% | Percent viability measured by Dye Exclusion ([5]; incubation time 3 hr): 100% | Percent viability measured by Dye Exclusion ([5]; incubation time 5 hr): 99% | Percent viability measured by Dye Exclusion ([5]; incubation time 8 hr): 81% | Percent viability measured by Dye Exclusion ([5]; incubation time 12 hr): 72% | Percent viability measured by Dye Exclusion ([5]; incubation time 18 hr): 59% | viability at 2 h, 1 µM ([6]; 2 hours): 99% | viability at 4 h, 1 µM ([6]; 4 hours): 98% | viability at 6 h, 1 µM ([6]; 6 hours): 91% | viability at 8 h, 1 µM ([6]; 8 hours): 81% | viability at 12 h, 1 µM ([6]; 12 hours): 72% | viability at 18 h, 1 µM ([6]; 18 hours): 59% | viability at 24 h, 1 µM ([6]; 24 hours): 10% | IC50 [7]: 390 nM | IC50 [8]: 11 nM | IC50 [9]: 28 nM | IC50 [10]: 23 nM | IC50 [11]: 320 nM | % Inhibition of growth ([12]; 10^-7 M, listed as Free Drug): 32% | inhibition at 10 µM [12, 14]: 81% | inhibition at 1 µM [12, 15]: 67% | inhibition at 0.1 µM [12, 16]: < 32% | inhibition at 0.01 µM [12, 17]: 14% | inhibition at 0.001 µM [12, 18]: 0% | inhibition at 0.0001 µM [12, 19]: 0% | inhibition at 10 pM ([12]; Homo sapiens, CEM/VBL100, 10^-11 M): 0% | % Inhibition of growth ([13]; 10^-7 M, listed as Free Drug): 22% | inhibition at 10 µM [13, 14]: 98% | inhibition at 1 µM [13, 15]: 86% | inhibition at 0.1 µM [13, 16]: < 22% | inhibition at 0.01 µM [13, 17]: 3% | inhibition at 0.001 µM [13, 18]: 5% | inhibition at 0.0001 µM [13, 19]: 0%
